Drawing on PubChem BioAssay AID248 (DTP/NCI, 2004), this text covers T/C for 18 molecules.

The test system of this experiment is L1210 leukemia ip in BDF1 mice, survival T/C. The experiment can be described thus: NCI In Vivo Anticancer Drug Screen. Data for tumor model L1210 Leukemia (intraperitoneal) in B6D2F1 (BDF1) mice. Particulars: endpoint: mean survival time, higher = longer survival. Summed up: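 Antitumor effect is assessed in tumor-bearing animals. Survival in the compound arm is compared with a vehicle-dosed control arm and expressed as their quotient.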

Where [1] appears, read: dose: 50.0 mg/kg/injection, schedule: Q01DX009 (ip), vehicle: saline with Tween-80.
The mark [2] stands for this setting: dose: 100.0 mg/kg/injection, schedule: Q01DX009 (ip), vehicle: saline with Tween-80.
Where [3] appears, read: dose: 100.0 mg/kg/injection, schedule: Q01DX001 (ip), vehicle: saline.
[4] abbreviates: dose: 200.0 mg/kg/injection, schedule: Q01DX001 (ip), vehicle: saline.
Setting [5] is: dose: 400.0 mg/kg/injection, schedule: Q01DX001 (ip), vehicle: saline.
The mark [6] stands for this setting: dose: 100.0 mg/kg/injection, schedule: Q04DX003 (ip), vehicle: Klucel (hydroxypropylcellulose) (HPC).
The mark [7] stands for this setting: dose: 200.0 mg/kg/injection, schedule: Q04DX003 (ip), vehicle: Klucel (hydroxypropylcellulose) (HPC).
Where [8] appears, read: dose: 400.0 mg/kg/injection, schedule: Q04DX003 (ip), vehicle: Klucel (hydroxypropylcellulose) (HPC).

“And” between values parts separate entries of the source, which are not always exact repeats. Equal entries are not always repeated. Toxic doses and inconclusive results are not listed.

As to `OCC1OC(n2c(Cl)nc3cc(Cl)c(Cl)cc32)C(O)C1O` (configuration not stated), the T/C by setting is: (dose: 100.0 mg/kg/injection, schedule: Q01DX005 (ip), vehicle: saline) 96 % of control; (dose: 200.0 mg/kg/injection, schedule: Q01DX005 (ip), vehicle: saline) 96 % of control.

For `O=C(Nc1cccc(C(F)(F)F)c1)c1ccc(F)cc1`, the T/C (dose: 100.0 mg/kg/injection, schedule: Q04DX002 (ip), vehicle: Klucel (hydroxypropylcellulose) (HPC)) was 91 % of control; the T/C (dose: 200.0 mg/kg/injection, schedule: Q04DX002 (ip), vehicle: Klucel (hydroxypropylcellulose) (HPC)) was 102 % of control; the T/C (dose: 400.0 mg/kg/injection, schedule: Q04DX002 (ip), vehicle: Klucel (hydroxypropylcellulose) (HPC)) is 88 % of control.

Turning to `CC(Cl)CN(N=O)C(=O)NC1CCCCC1` (configuration not stated), the T/C by setting is: (dose: 16.0 mg/kg/injection, schedule: Q01DX001 (ip), vehicle: other) 96 % of control; (dose: 31.0 mg/kg/injection, schedule: Q01DX001 (ip), vehicle: other) 104 % of control; (dose: 62.0 mg/kg/injection, schedule: Q01DX001 (ip), vehicle: other) 102 % of control; (dose: 125.0 mg/kg/injection, schedule: Q01DX001 (ip), vehicle: other) 104 % of control; (dose: 187.0 mg/kg/injection, schedule: Q01DX001 (ip), vehicle: other) 117 % of control; (dose: 250.0 mg/kg/injection, schedule: Q01DX001 (ip), vehicle: other) 94 % of control. The T/C is, setting by setting: (dose: 375.0 mg/kg/injection, schedule: Q01DX001 (ip), vehicle: other) 122 % of control; (dose: 500.0 mg/kg/injection, schedule: Q01DX001 (ip), vehicle: other) 167 % of control; (dose: 750.0 mg/kg/injection, schedule: Q01DX001 (ip), vehicle: other) 187 % of control.

With `COc1cccc(C[P+](C/C=C/c2ccccc2)(c2ccccc2)c2ccccc2)c1`, the T/C was 109 % of control (dose: 6.25 mg/kg/injection, schedule: Q04DX003 (ip), vehicle: Klucel (hydroxypropylcellulose) (HPC)); 88 % of control (dose: 12.5 mg/kg/injection, schedule: Q04DX003 (ip), vehicle: Klucel (hydroxypropylcellulose) (HPC)); 97 % of control (dose: 25.0 mg/kg/injection, schedule: Q04DX003 (ip), vehicle: Klucel (hydroxypropylcellulose) (HPC)).

On to `CCCCCCCCCCCCSC1=C(Cl)C(=O)C(OC)=C(OC)C1=O`, for which the T/C is 100 % of control (dose: 3.12 mg/kg/injection, schedule: Q01DX009 (ip), vehicle: saline with Tween-80); 93 % of control (dose: 6.25 mg/kg/injection, schedule: Q01DX009 (ip), vehicle: saline with Tween-80); 94 % of control (dose: 12.5 mg/kg/injection, schedule: Q01DX009 (ip), vehicle: saline with Tween-80); 96 % of control (dose: 25.0 mg/kg/injection, schedule: Q01DX009 (ip), vehicle: saline with Tween-80); 100 % of control under setting [1]; 94 % of control under setting [2].

For `COc1ccc(OC)c2c(=O)c(C(=O)O)c[nH]c12`, the T/C is 102 % of control under setting [3], 100 % of control under setting [4] and 105 % of control under setting [5].

In the case of `O=C1c2cc([N+](=O)[O-])ccc2-c2cc(Br)cc(Br)c21`, the T/C by setting is: (dose: 100.0 mg/kg/injection, schedule: Q01DX001 (ip), vehicle: carboxymethylcellulose (CMC)) 93 % of control; (dose: 200.0 mg/kg/injection, schedule: Q01DX001 (ip), vehicle: carboxymethylcellulose (CMC)) 108 % of control; (dose: 400.0 mg/kg/injection, schedule: Q01DX001 (ip), vehicle: carboxymethylcellulose (CMC)) 98 % of control.

`FC(F)(F)c1ccc2c(c1)N(CCCN1CCN(CCCl)CC1)c1ccccc1S2`: the T/C reads like this: (dose: 0.78 mg/kg/injection, schedule: Q01DX009 (ip), vehicle: saline) 101 % of control; (dose: 1.56 mg/kg/injection, schedule: Q01DX009 (ip), vehicle: saline) 107 % of control; (dose: 3.12 mg/kg/injection, schedule: Q01DX009 (ip), vehicle: saline) 107 % of control; (dose: 6.25 mg/kg/injection, schedule: Q04DX003 (ip), vehicle: saline) 96 % of control; (dose: 12.5 mg/kg/injection, schedule: Q01DX009 (ip), vehicle: saline) 110 % of control; (dose: 12.5 mg/kg/injection, schedule: Q04DX003 (ip), vehicle: saline) 97 % of control. Further, the T/C is 110 % of control (dose: 25.0 mg/kg/injection, schedule: Q04DX003 (ip), vehicle: saline) and 89 % of control (dose: 50.0 mg/kg/injection, schedule: Q04DX003 (ip), vehicle: saline).

For the molecule `Cc1ccncc1C#N`, the T/C was 98 % of control (dose: 6.0 mg/kg/injection, schedule: Q04DX003 (ip), vehicle: saline); 98 % of control (dose: 12.0 mg/kg/injection, schedule: Q04DX003 (ip), vehicle: saline); 98 % of control (dose: 24.0 mg/kg/injection, schedule: Q04DX003 (ip), vehicle: saline).

Turning to `CC(C)(O)Cc1ccc(Br)cc1`, the T/C by setting is: under setting [1], 95 % of control; under setting [2], 103 % of control; (dose: 200.0 mg/kg/injection, schedule: Q01DX009 (ip), vehicle: saline with Tween-80) 111 % of control.

Turning to `O=[N+]([O-])c1cccc2nc(N/N=C/c3ccccc3O)ccc12`, the T/C by setting is: (dose: 25.0 mg/kg/injection, schedule: Q01DX009 (ip), vehicle: water) 89 % of control; (dose: 50.0 mg/kg/injection, schedule: Q01DX009 (ip), vehicle: water) 94 % of control; (dose: 200.0 mg/kg/injection, schedule: Q01DX009 (ip), vehicle: water) 94 % of control; (dose: 400.0 mg/kg/injection, schedule: Q01DX009 (ip), vehicle: water) 93 % of control.

For `Cc1ccccc1NC(=O)NCC(=O)O`, the T/C under setting [6] was 104 % of control, the T/C under setting [7] is 98 % of control and the T/C under setting [8] was 93 % of control.

Turning to `CCN(CC)CCCC(C)Nc1cccc2c1C(=O)c1ccccc1C2=O` (configuration not stated), the T/C by setting is: (dose: 25.0 mg/kg/injection, schedule: Q01DX009 (ip), vehicle: saline) 100 % of control; (dose: 25.0 mg/kg/injection, schedule: Q04DX002 (ip), vehicle: saline) 95 % of control; (dose: 50.0 mg/kg/injection, schedule: Q01DX009 (ip), vehicle: saline) 93 % of control; (dose: 50.0 mg/kg/injection, schedule: Q04DX002 (ip), vehicle: saline) 92 % of control; (dose: 100.0 mg/kg/injection, schedule: Q01DX009 (ip), vehicle: saline) 93 % of control; (dose: 100.0 mg/kg/injection, schedule: Q04DX002 (ip), vehicle: saline) 100 % of control and 92 % of control.

With `O=C(CC(=O)c1ccccc1)c1ccccc1.O=C(CC(=O)c1ccccc1)c1ccccc1.O=C(CC(=O)c1ccccc1)c1ccccc1.[Al]`, the T/C is 100 % of control (dose: 100.0 mg/kg/injection, schedule: Q04DX002 (ip), vehicle: gum acacia); 97 % of control (dose: 200.0 mg/kg/injection, schedule: Q04DX002 (ip), vehicle: gum acacia); 90 % of control (dose: 400.0 mg/kg/injection, schedule: Q04DX002 (ip), vehicle: gum acacia).

Take `CC(O)CC1CC(=O)CCC1=O` (configuration not stated): the T/C was 96 % of control (dose: 100.0 mg/kg/injection, schedule: Q01DX009 (ip), vehicle: acetone); 101 % of control (dose: 200.0 mg/kg/injection, schedule: Q01DX009 (ip), vehicle: acetone); 102 % of control (dose: 400.0 mg/kg/injection, schedule: Q01DX009 (ip), vehicle: acetone).

For the molecule `N#CCc1ccc2c(c1)[nH]c1ccccc12`, the T/C reads like this: under setting [6], 100 % of control; under setting [7], 100 % of control; under setting [8], 105 % of control.

As for `COC1CCC2(C)C(C)C(C)CC3OC32C1` (configuration not stated), the T/C was 95 % of control (dose: 50.0 mg/kg/injection, schedule: Q01DX001 (ip), vehicle: saline); 101 % of control under setting [3]; 95 % of control under setting [4]; 104 % of control under setting [5].

Consider `O=C1OC2C3c4ccccc4C(c4c3ccc3ccccc43)C2O1` (configuration not stated), for which the T/C under setting [6] is 103 % of control, the T/C under setting [7] is 95 % of control and the T/C under setting [8] is 95 % of control.
